The values that follow come from PMC5425475 (Frontiers in Systems Neuroscience, 2017).

As usually defined, the EC50 is the concentration needed to bring the measured effect to its halfway point. Broadly, the IC50 is the concentration that inhibits the measured activity by half. The Ki is the dissociation constant of the complex between target and ligand, obtained from inhibition or displacement.

Assay [1] deals with T1, Dm5-HT2B (Drosophila melanogaster, UniProt Q8INQ6). In words: Ca2+ fluorimetry (Fluo-4), agonist activation of Dm5-HT2B expressed in HEK 293 cells. Conditions: for change in Ca2+-dependent Fluo-4 fluorescence: biogenic amines 1 μM each. It is filed as cell-based. Here is the method:
Stably transfected cells were selected in the presence of the antibiotic G418 (0.8 mg/ml). Isolated foci were propagated and analyzed for the expression of Dm5-HT2B-HA receptor either by immunocytochemistry, Western blotting or by functional Ca^2+ imaging upon receptor activation.
The ability of the Dm5-HT2B-HA receptor (hereafter referred to as Dm5-HT2B) to activate Gq proteins was assessed by monitoring changes in [Ca^2+]i with the Ca^2+-sensitive fluorescent dye Fluo-4 (Invitrogen). Non-transfected HEK 293 cells and cells expressing Dm5-HT2B were grown in minimal essential medium (MEM + GlutaMAX^TMI (Gibco/ThermoFisher Scientific, Darmstadt, Germany) containing 2% (w/v) Utroser^TM G (Pall, Dreieich, Germany), 1 × non-essential amino acids and 1 × antibiotics/antimycotics) in 96-well plates to a density of ∼3 × 10^4 cells per well. In this format, each vertical row (=8 wells) of the 96-well plate is incubated with the same ligand concentration. […] Plates were transferred into a fluorescence reader (FLUOstar Galaxy/Optima; BMG Labtech, Offenburg, Germany) to monitor Fluo-4 fluorescence. […] Various concentrations of biogenic amines and synthetic receptor ligands were added, once Fluo-4 fluorescence had reached a stable value in each well. The changes in Fluo-4 fluorescence were recorded automatically. Concentration-response curves for putative agonists/antagonists were established in at least two independent experiments with octuplicate determinations (s.a.) per data point.

For the next assay, the system named is Am5-HT2A. Further details: method as in Thamm et al., 2013. Conditions: ref Thamm et al., 2013, cited from earlier work; for EC50: Am5-HT2A in HEK 293 cells.
A further assay relates to Am5-HT2B. Further details: method as in Thamm et al., 2013. Conditions: ref Thamm et al., 2013, cited from earlier work; for EC50: Am5-HT2B in HEK 293 cells; for Ca2+-dependent fluorescence blocked to: residual signal.
The subject of the next assay is Cv5-HT2A. Further details: method as in Röser et al., 2012. Conditions: ref Röser et al., 2012, cited from earlier work; for EC50: Cv5-HT2A in HEK 293 cells.
The next assay concerns Rp5-HT2B. Further details: method as in Paluzzi et al., 2015. Conditions: ref Paluzzi et al., 2015, cited from earlier work; for receptor activity reduced by: Rp5-HT2B, highest of three concentrations tested (10^-7, 10^-6, 10^-5 M).
Assay [2] concerns the target T1, Dm5-HT2B. In words: Ca2+ fluorimetry (Fluo-4), antagonists on serotonin-stimulated Dm5-HT2B-expressing HEK 293 cells. It is filed as cell-based. The following applies: for effect on serotonin-stimulated Dm5-HT2B-expressing cells: 10^-9 M to 10^-4 M antagonist on 10^-7 M serotonin; for Maximal inhibition: relative efficacy, signal with 10^-7 M serotonin = 100%. The protocol: (§1) The ability of the Dm5-HT2B-HA receptor (hereafter referred to as Dm5-HT2B) to activate Gq proteins was assessed by monitoring changes in [Ca^2+]i with the Ca^2+-sensitive fluorescent dye Fluo-4 (Invitrogen). Non-transfected HEK 293 cells and cells expressing Dm5-HT2B were grown in minimal essential medium (MEM + GlutaMAX^TMI (Gibco/ThermoFisher Scientific, Darmstadt, Germany) containing 2% (w/v) Utroser^TM G (Pall, Dreieich, Germany), 1 × non-essential amino acids and 1 × antibiotics/antimycotics) in 96-well plates to a density of ∼3 × 10^4 cells per well. In this format, each vertical row (=8 wells) of the 96-well plate is incubated with the same ligand concentration. Cells were loaded at room temperature with Fluo-4 as described earlier ([Thamm et al., 2013]; [Blankenburg et al., 2015]) in extracellular solution [ES = in mM: 120 NaCl, 5 KCl, 2 MgCl2, 2 CaCl2, 10 HEPES, 10 Glucose, pH 7.4 (NaOH)]. Plates were transferred into a fluorescence reader (FLUOstar Galaxy/Optima; BMG Labtech, Offenburg, Germany) to monitor Fluo-4 fluorescence. The excitation wavelength was 485 nm, and fluorescence emission was detected at 520 nm. Various concentrations of biogenic amines and synthetic receptor ligands were added, once Fluo-4 fluorescence had reached a stable value in each well. The changes in Fluo-4 fluorescence were recorded automatically. Concentration-response curves for putative agonists/antagonists were established in at least two independent experiments with octuplicate determinations (s.a.) per data point.
Next, we examined the ability of potential receptor antagonists for impairing Dm5-HT2B activity.

Assay [3] addresses T1, Dm5-HT2B. Also on record: method as in Gasque et al. (2013). The following applies: Dm5-HT2B in HEK 293T cells, individual cells; ref Gasque et al. (2013); cited from earlier work.
The subject of a further assay is D. melanogaster larvae. Also on record: method as in Gasque et al., 2013. Conditions: ref Gasque et al., 2013; cited from earlier work.
The target in assay [4] is tyramine receptor TyrR (CG7431). Further details: method as in Arakawa et al., 1990. The following applies: ref Arakawa et al., 1990; cited from earlier work.
Assay [5] relates to β-adrenergic-like octopamine receptor Octβ3R (CG42244). Further details: method as in Maqueira et al., 2005. The following applies: only 10^-5 M tested; ref Maqueira et al., 2005; cited from earlier work.
Assay [6] has as its system non-transfected HEK 293 cells. In words: Ca2+ fluorimetry (Fluo-4) in non-transfected HEK 293 cells (control). It is filed as cell-based. Conditions: for change in Ca2+-dependent Fluo-4 fluorescence: biogenic amines 1 μM each. The protocol:
as §1

The mark [7] stands for this setting: background of 10^-7 M serotonin, Dm5-HT2B-expressing HEK 293 cells.

Values joined by “and” are separate entries in the source; they are usually repeats but may differ in a detail not shown here. Equal entries are not always repeated. “Also recorded” adds a separate entry of the source. Where two headings read alike, the source gives them in different places.

T1 sequence (Q8INQ6 entry or part of it): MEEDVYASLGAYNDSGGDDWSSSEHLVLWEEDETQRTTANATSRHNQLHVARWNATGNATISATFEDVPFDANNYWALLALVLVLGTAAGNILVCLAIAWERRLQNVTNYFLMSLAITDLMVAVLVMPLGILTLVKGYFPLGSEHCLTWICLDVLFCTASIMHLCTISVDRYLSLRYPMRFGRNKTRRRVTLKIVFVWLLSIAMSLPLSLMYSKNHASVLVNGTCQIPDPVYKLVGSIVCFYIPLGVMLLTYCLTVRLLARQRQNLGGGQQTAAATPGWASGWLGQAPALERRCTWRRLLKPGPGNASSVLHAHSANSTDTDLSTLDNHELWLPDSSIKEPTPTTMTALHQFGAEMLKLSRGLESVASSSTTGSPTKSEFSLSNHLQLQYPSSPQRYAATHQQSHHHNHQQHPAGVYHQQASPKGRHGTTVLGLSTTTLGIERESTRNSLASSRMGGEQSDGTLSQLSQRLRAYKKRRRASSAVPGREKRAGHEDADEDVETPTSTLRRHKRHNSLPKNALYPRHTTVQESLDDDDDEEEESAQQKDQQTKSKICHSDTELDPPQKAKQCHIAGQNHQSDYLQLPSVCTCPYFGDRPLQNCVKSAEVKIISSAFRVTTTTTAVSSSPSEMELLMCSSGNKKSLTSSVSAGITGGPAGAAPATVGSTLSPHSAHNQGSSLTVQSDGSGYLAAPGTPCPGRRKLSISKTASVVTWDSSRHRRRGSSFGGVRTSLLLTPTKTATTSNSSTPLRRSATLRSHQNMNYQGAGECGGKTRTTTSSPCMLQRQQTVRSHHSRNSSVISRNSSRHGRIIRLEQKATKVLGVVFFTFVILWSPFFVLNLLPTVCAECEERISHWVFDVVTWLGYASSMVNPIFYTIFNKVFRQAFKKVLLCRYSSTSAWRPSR

Consider `COc1ccc2[nH]cc(CCN)c2c1` [5-methoxytryptamine], for which the concentration giving a half-maximal response (EC50) is 1050 nM and ~1000 nM on Dm5-HT2B [1] (EC50 (half-maximal activation of Dm5-HT2B), Dm5-HT2B-expressing HEK 293 cells, Fluo-4 fluorescence, concentrations 10^-9 M to 10^-4 M); 70 nM with Am5-HT2A; 60.4 nM in the assay on Am5-HT2B; 67 nM with Cv5-HT2A.
Consider `CCCN(CCC)C1CCc2cccc(O)c2C1` (stereo not drawn) [8-OH-DPAT, 8-Hydroxy-2-(di-n-propylamino)tetralin], for which the EC50 is approximately 650000 nM at Dm5-HT2B [1], 55900 nM in the assay on Am5-HT2A, 560 nM in the assay on Am5-HT2B and 62000 nM with Cv5-HT2A.
Take `CN1CCN(C2=Nc3cc(Cl)ccc3Nc3ccccc32)CC1` [Clozapine, clozapine]: in the assay on Am5-HT2B (Am5-HT2B), the “Ca2+-dependent fluorescence blocked to” value is 5%.
With `CN1CCC(=C2c3ccccc3C=Cc3ccccc32)CC1` [Cyproheptadine, cyproheptadine], in the assay on Am5-HT2A (Am5-HT2A), the “serotonin-induced Ca2+-dependent fluorescence reduced by” value was 36%. The “Ca2+-dependent fluorescence blocked to” value in the assay on Am5-HT2B (Am5-HT2B) is 23%. Besides, the “receptor activity reduced by” value with Rp5-HT2B is not below 50%.
Consider `O=C(c1ccc(F)cc1)C1CCN(CCn2c(=O)[nH]c3ccccc3c2=O)CC1` [Ketanserin, ketanserin], for which the “effect on serotonin-stimulated Dm5-HT2B-expressing cells” value at Dm5-HT2B [2] was “did not observe any effect; also recorded: completely lacked inhibitory potential”. The IC50 entry on Dm5-HT2B [2] (setting [7]) was “no effect”. In addition, the “receptor activity reduced by” value in the assay with Rp5-HT2B is not below 50%.
In the case of `CC[C@@H](CO)NC(=O)[C@@H]1C=C2c3cccc4c3c(cn4C)C[C@H]2N(C)C1` [Methysergide, methysergide], the “effect on serotonin-stimulated Dm5-HT2B-expressing cells” value at Dm5-HT2B [2] is “did not observe any effect; also recorded: completely lacked inhibitory potential”. Further, on Dm5-HT2B [2] (setting [7]), the IC50 entry was “no effect”.
Consider `CSc1ccc2c(c1)C(N1CCN(C)CC1)Cc1ccccc1S2` (stereo not drawn) [Metitepine, metitepine], for which the IC50 is 3.56e-06 M against Dm5-HT2B [2] (IC50, background of 10^-7 M serotonin, Dm5-HT2B-expressing HEK 293 cells); 3.55e-06 M at Dm5-HT2B [2] (Log IC50 ± SD, logarithm of the IC50 (M), background of 10^-7 M serotonin); 1200 nM with Cv5-HT2A (Cv5-HT2A); 2000 nM at Dm5-HT2B [3]. This molecule showed a Maximal inhibition at Dm5-HT2B [2] of 35%. Besides, the “inhibition range (IC50)” value in the assay with Am5-HT2A (Am5-HT2A) is listed as “micromolar range”. Besides, the “serotonin-induced Ca2+-dependent fluorescence reduced by” value with Am5-HT2A (Am5-HT2A) is 39%. In the assay with Am5-HT2B (Am5-HT2B), the antagonist activity result is reported as “did not have any activity at all”. Further, the “serotonin-induced Ca2+ signals reduced to % of control measurements” value in the assay with Cv5-HT2A (Cv5-HT2A) was 15%. In addition, the “effect on food intake” value with D. melanogaster larvae was “potent anorectic drug”.
For the molecule `CCN(CC)CCNC(=O)c1cc(Cl)c(N)cc1OC` [Metoclopramide, metoclopramide], the IC50 at Dm5-HT2B [2] (background of 10^-7 M serotonin, Dm5-HT2B-expressing HEK 293 cells, read-out: IC50) is 1.59e-08 M; on Dm5-HT2B [2] (logarithm of the IC50 (M), background of 10^-7 M serotonin, read-out: Log IC50 ± SD (converted)) it was 1.58e-08 M. At Dm5-HT2B [2], this molecule had a Maximal inhibition of 60%. Besides, the “serotonin-evoked Ca2+ response reduced to % of control measurements without antagonist” value at Dm5-HT2B [2] (residual signal at maximal inhibition) amounted to 40%. In addition, the Ki in assay [4] is 4600 nM. Moreover, in [5], the effect on receptor entry was “block”.
With `CN1CCN2c3ccccc3Cc3ccccc3C2C1` (stereo not drawn) [Mianserin, mianserin], the “serotonin-induced Ca2+-dependent fluorescence reduced by” value in the assay on Am5-HT2A (Am5-HT2A) is reported as 49%. Moreover, the “Ca2+-dependent fluorescence blocked to” value in the assay with Am5-HT2B (Am5-HT2B) is recorded as 24%. In addition, the “receptor activity reduced by” value in the assay on Rp5-HT2B is not below 50%.
For `COc1cc2nc(N3CCN(C(=O)c4ccco4)CC3)nc(N)c2cc1OC` [Prazosin, prazosin], at Dm5-HT2B [2], the “effect on serotonin-stimulated Dm5-HT2B-expressing cells” value is “caused a reduction of the cellular response; also recorded: the responses did not saturate” and the Maximal inhibition was 50%. In addition, at Dm5-HT2B [2] (setting [7]), the IC50 entry is reported as “no saturation”.
With `Cc1cc2c(cc1Cl)N(C(=O)Nc1ccc(Oc3cccnc3C)nc1)CC2` [SB 242084], the “effect on serotonin-stimulated Dm5-HT2B-expressing cells” value at Dm5-HT2B [2] is recorded as “did not observe any effect; also recorded: completely lacked inhibitory potential”. The IC50 result against Dm5-HT2B [2] (setting [7]) is recorded as “no effect”.
For `O=C(CCCN1CCC2(CC1)C(=O)NCN2c1ccccc1)c1ccc(F)cc1` [Spiperone, spiperone], at Dm5-HT2B [2], the “effect on serotonin-stimulated Dm5-HT2B-expressing cells” value is “caused a reduction of the cellular response; also recorded: the responses did not saturate” and the Maximal inhibition was determined as 25%. At Dm5-HT2B [2] (setting [7]), the IC50 result is “no saturation”.
For the molecule `NCCc1ccc(O)c(O)c1` [dopamine], the “change in Ca2+-dependent Fluo-4 fluorescence” value (“change” for short) at Dm5-HT2B [1] (Dm5-HT2B-expressing cells) is “Neither dopamine, octopamine nor tyramine evoked responses”; in assay [6] it was “Neither dopamine, octopamine nor tyramine evoked responses”.
`NCCc1c[nH]cn1` [histamine]: the “change” value (on Dm5-HT2B [1] (Dm5-HT2B-expressing cells); in assay [6]) was “caused a rise in Ca^2+-dependent Fluo-4 fluorescence” in each case.
On to `NCC(O)c1ccc(O)cc1` (stereo not drawn) [octopamine], for which the “change” value on Dm5-HT2B [1] (Dm5-HT2B-expressing cells) was “Neither dopamine, octopamine nor tyramine evoked responses”; in [6], “Neither dopamine, octopamine nor tyramine evoked responses”.
For the molecule `NCCc1c[nH]c2ccc(O)cc12` [serotonin, 5-hydroxytryptamine], the “concentration at which the concentration-response curve saturated” value on Dm5-HT2B [1] (Dm5-HT2B-expressing cells) was found to be 30 µM. Further, the results for the “change” value (on Dm5-HT2B [1] (Dm5-HT2B-expressing cells); in [6]) were “increase in the fluorescence signal” and “not in non-transfected cells”, respectively. Besides, the “fluorescence signal at the highest ligand concentration” value in [6] (10^-4 M) was “slight increase in the fluorescence signal”. Further, the EC50 in the assay on Am5-HT2A was 25.7 nM; with Am5-HT2B it was 32.5 nM; in the assay with Cv5-HT2A, 24 nM; in the assay with Rp5-HT2B (Rp5-HT2B in CHOK1-aeq cells) it was 201 nM.
As to `NCCc1ccc(O)cc1` [tyramine], the “change” value is recorded as “Neither dopamine, octopamine nor tyramine evoked responses” on Dm5-HT2B [1] (Dm5-HT2B-expressing cells) and “Neither dopamine, octopamine nor tyramine evoked responses” in assay [6].
